What was measured:
phosphorylated PLCγ2 = test: Phosphorylated PLCγ2 in human CD8+ T cells from whole blood in vitro (flow cytometry); assay type: cell-based; conditions: T-cell, whole blood from six human donors, 2 hrs 37° C., anti-CD3/anti-CD28 + crosslinker 60 minutes, read-out: Average mean EC50±standard deviation, phosphorylated PLCγ2
Protocol: To assess these candidate clinical proximal biomarkers of Cbl-b inhibition on T cells, pharmacodynamic analysis was performed. Whole blood was obtained from human donors and incubated with increasing concentrations of Compound 23. The response to Cbl-b inhibition on phosphorylated HS1, PLCγ2, and ZAP70 was measured in CD8^+ T cells using flow cytometry. This technique is highly quantitative and can measure multiple phosphorylation markers in different cell populations within the same sample.
For pharmacodynamic analysis, whole blood was obtained from six human donors (BioIVT) and used for flow cytometry assays to evaluate phosphorylated biomarkers HS1, PLCγ2, and ZAP70 in CD8^+ T cells.
Whole blood was collected in a collection tube coated with sodium heparin. […]
Stained cells were run on an Attune NxT Acoustic Focusing Flow Cytometer (Thermo Fisher, cat. No. A29004), and data was analyzed using FlowJo (v10.6.1) and GraphPad Prism (v8.00) software. Single lymphocytes were gated for CD8^+ cells (CD45^+/CD8^+) cells, and population frequencies were calculated for each population. The data is quantified by the percent positive. […] As protein becomes phosphorylated the fluorescence increases resulting in a larger fraction of the cells entering that gate. Each population was evaluated for % positive pY759-PLCγ2, pY397-HS1 levels, pY319/Syk (Y352)-ZAP70 levels.

pY783-PLCg1 = test: Phosphoprotein screen in human whole blood with CBL inhibitor at 10 uM: PLCγ1; assay type: cell-based; conditions: 1 hr 37° C., human whole blood 8 donors, anti-CD3/CD28 + crosslinker 60 minutes
Protocol: To identify proximal biomarkers of CBL-B inhibition in immune cells, a panel of phosphorylated proteins were screened in human whole blood incubated with CBL-B inhibitor and concomitant anti-CD3 and anti-CD28 antibodies. The effect of CBL-B inhibition was assessed across multiple cellular signaling networks.
Human heparinized whole blood from 8 donors was received after an overnight shipment at 4° C. The blood was plated, treated with CBL inhibitor at 10 uM and incubated at 37° C. for 60 minutes. After incubation, the cells were stimulated with anti-CD3/CD28 followed by a cross-linking antibody (30 μg of goat anti-mouse IgG (H+L) antibody (Invitrogen)). After 60 minutes, the cells were fixed, and stained using surface markers for T cells (CD3^+CD4^+& CD3^+CD8^+) and analyzed by flow cytometry for target phosphorylation of the following markers: pY180/pY511-ITK, pY397-HS1, pY759-PLCg2, pY783-PLCg1, pY525/pY526/pY348-SYK & pY319-Zap70.
Fold change of each biomarker was calculated with the following example equation: […]
Whole blood from eight human donors was collected in sodium heparin anti-coagulant treated with 10 μM of Compound 23 for 1 hr at 37° C. […] Fold change of % phosphorylation normalized to DMSO was quantitated in T cells (CD8^+) using flow cytometry is provided in FIGS. 6A-6B.

C[C@H]1CCCN(Cc2cc3c(c(C(F)(F)F)c2)CN(c2cccc([C@]4(c5nncn5C)C[C@@H](C)C4)c2)C3=O)C1 [Compound 23]
EC50 (phosphorylated PLCγ2): 74 ± 4.95 nM | increased phosphorylation of PLCγ1 compared to DMSO control (pY783-PLCg1): 2-3 fold

Reference: patent publication US20230355599A1, “BIOMARKERS FOR CBL, AND COMPOSITIONS AND METHODS FOR THEIR USE” (NURIX THERAPEUTICS, INC., priority 2022, published 2023)
